Among the data in PubChem BioAssay AID250 (DTP/NCI, 2004) are T/C values, retold here.

Values joined by “and” are separate entries in the source; they are usually repeats but may differ in a detail not shown here. Equal values may be shown once. Toxic doses and inconclusive results are not listed.

For this test, the system named is BDF1 mice, L1210 leukemia sc, survival T/C. As to the kind of experiment: NCI In Vivo Anticancer Drug Screen. Data for tumor model L1210 Leukemia (subcutaneous) in B6D2F1 (BDF1) mice. As to conditions: endpoint: median survival time, higher = longer survival. As for the experimental part:
The antitumor activity of compounds was measured in mice bearing transplantable tumors. Survival or tumor size were measured and the results are expressed as the measurement made in the treated group (T) divided by the measurement made in the vehicle treated control group (C). The tumor model used in this assay is L1210 Leukemia (subcutaneous) in B6D2F1 (BDF1) mice

The mark [1] stands for this setting: dose: 65.0 mg/kg/injection, schedule: Q01DX Z (sc), vehicle: saline.
[2] abbreviates: dose: 108.0 mg/kg/injection, schedule: Q01DX Z (sc), vehicle: saline.
[3] abbreviates: dose: 180.0 mg/kg/injection, schedule: Q01DX Z (sc), vehicle: saline.
Setting [4] is: dose: 300.0 mg/kg/injection, schedule: Q01DX Z (sc), vehicle: saline.

For the molecule `NC(=S)N/N=C/c1ccc(O)cn1`, the T/C reads like this: (dose: 8.4 mg/kg/injection, schedule: Q03HX024 (sc), vehicle: none) 120 % of control; (dose: 10.0 mg/kg/injection, schedule: Q03HX024 (sc), vehicle: other) 155 % of control; (dose: 20.0 mg/kg/injection, schedule: Q03HX024 (ip), vehicle: other) 183 % of control; (dose: 20.0 mg/kg/injection, schedule: Q03HX024 (sc), vehicle: other) 177 % of control; (dose: 23.0 mg/kg/injection, schedule: Q03HX024 (sc), vehicle: none) 175 % of control; (dose: 30.0 mg/kg/injection, schedule: Q03HX024 (ip), vehicle: other) 238 % of control. Further, the T/C (dose: 30.0 mg/kg/injection, schedule: Q03HX024 (sc), vehicle: other) was 266 % of control; the T/C (dose: 39.0 mg/kg/injection, schedule: Q03HX024 (sc), vehicle: none) was 165 % of control; the T/C (dose: 50.0 mg/kg/injection, schedule: Q04DX003 (sc), vehicle: other) is 107 % of control and 110 % of control; the T/C (dose: 60.0 mg/kg/injection, schedule: Q03HX024 (ip), vehicle: other) was 100 % of control; the T/C (dose: 65.0 mg/kg/injection, schedule: Q01DX009 (sc), vehicle: other) was 158 % of control and 166 % of control; the T/C under setting [1] was 104 % of control. For the same molecule, the T/C was 150 % of control (dose: 65.0 mg/kg/injection, schedule: Q08DX009 (sc), vehicle: none); 150 % of control (dose: 100.0 mg/kg/injection, schedule: Q01DX009 (ip), vehicle: other); 155 % of control (dose: 100.0 mg/kg/injection, schedule: Q01DX009 (sc), vehicle: other); 111 % of control (dose: 100.0 mg/kg/injection, schedule: Q04DX003 (ip), vehicle: other); 107 % of control and 110 % of control and 111 % of control (dose: 100.0 mg/kg/injection, schedule: Q04DX003 (sc), vehicle: other); 163 % of control and 166 % of control (dose: 108.0 mg/kg/injection, schedule: Q01DX009 (sc), vehicle: other). Moreover, the T/C is, setting by setting: under setting [2], 104 % of control; (dose: 108.0 mg/kg/injection, schedule: Q04DX003 (sc), vehicle: none) 100 % of control; (dose: 108.0 mg/kg/injection, schedule: Q04DX003 (sc), vehicle: other) 103 % of control and 105 % of control; (dose: 108.0 mg/kg/injection, schedule: Q08DX009 (sc), vehicle: none) 155 % of control; (dose: 180.0 mg/kg/injection, schedule: Q01DX009 (sc), vehicle: other) 170 % of control and 177 % of control; under setting [3], 104 % of control. Also, the T/C by setting is: (dose: 180.0 mg/kg/injection, schedule: Q02DX005 (sc), vehicle: other) 99 % of control; (dose: 180.0 mg/kg/injection, schedule: Q04DX003 (sc), vehicle: none) 100 % of control; (dose: 180.0 mg/kg/injection, schedule: Q04DX003 (sc), vehicle: other) 104 % of control and 105 % of control; (dose: 180.0 mg/kg/injection, schedule: Q08DX009 (sc), vehicle: none) 150 % of control; (dose: 180.0 mg/kg/injection, schedule: Q11HX006 (sc), vehicle: water) 122 % of control; (dose: 200.0 mg/kg/injection, schedule: Q01DX009 (ip), vehicle: other) 150 % of control. For the same molecule, the T/C is 150 % of control (dose: 200.0 mg/kg/injection, schedule: Q01DX009 (sc), vehicle: other); 111 % of control (dose: 200.0 mg/kg/injection, schedule: Q04DX003 (ip), vehicle: other); 98 % of control and 100 % of control and 116 % of control (dose: 200.0 mg/kg/injection, schedule: Q04DX003 (sc), vehicle: other); 150 % of control (dose: 300.0 mg/kg/injection, schedule: Q01DX009 (sc), vehicle: other); 108 % of control under setting [4]; 108 % of control (dose: 300.0 mg/kg/injection, schedule: Q02DX005 (sc), vehicle: other). Besides, the T/C is, setting by setting: (dose: 300.0 mg/kg/injection, schedule: Q04DX003 (sc), vehicle: none) 100 % of control; (dose: 300.0 mg/kg/injection, schedule: Q04DX003 (sc), vehicle: other) 105 % of control and 111 % of control; (dose: 300.0 mg/kg/injection, schedule: Q04DX003 (sc), vehicle: water) 111 % of control; (dose: 300.0 mg/kg/injection, schedule: Q08DX009 (sc), vehicle: none) 160 % of control; (dose: 300.0 mg/kg/injection, schedule: Q11HX006 (sc), vehicle: water) 122 % of control; (dose: 400.0 mg/kg/injection, schedule: Q01DX009 (sc), vehicle: other) 88 % of control. For the same molecule, the T/C (dose: 400.0 mg/kg/injection, schedule: Q04DX003 (ip), vehicle: other) was 111 % of control; the T/C (dose: 400.0 mg/kg/injection, schedule: Q04DX003 (sc), vehicle: other) was 99 % of control and 100 % of control and 116 % of control; the T/C (dose: 500.0 mg/kg/injection, schedule: Q02DX005 (sc), vehicle: other) was 100 % of control and 117 % of control; the T/C (dose: 500.0 mg/kg/injection, schedule: Q04DX003 (sc), vehicle: none) is 100 % of control; the T/C (dose: 500.0 mg/kg/injection, schedule: Q04DX003 (sc), vehicle: other) is 106 % of control and 111 % of control; the T/C (dose: 833.0 mg/kg/injection, schedule: Q02DX005 (sc), vehicle: other) was 105 % of control and 60 % of control. Also, where the note is “dose: 1388.0 mg/kg/injection, schedule: Q02DX005 (sc), vehicle: other”, the T/C was 120 % of control and 60 % of control.

Regarding `CN=C(NC)c1ccc(NC(=O)Nc2ccc(NC(=O)Nc3ccc(C(=NC)NC)cc3)cc2)cc1`, the T/C runs as follows: (dose: 3.0 mg/kg/injection, schedule: Q01DX Z (sc), vehicle: saline) 100 % of control; (dose: 5.0 mg/kg/injection, schedule: Q01DX Z (sc), vehicle: saline) 105 % of control; (dose: 8.4 mg/kg/injection, schedule: Q01DX Z (sc), vehicle: saline) 100 % of control; (dose: 14.0 mg/kg/injection, schedule: Q01DX Z (sc), vehicle: saline) 105 % of control; (dose: 39.0 mg/kg/injection, schedule: Q01DX Z (sc), vehicle: saline) 115 % of control; under setting [1], 110 % of control.

Consider `CC(C)CN(N)C(N)=O`, for which the T/C is 100 % of control (dose: 78.0 mg/kg/injection, schedule: Q01DX Z (sc), vehicle: saline); 100 % of control (dose: 130.0 mg/kg/injection, schedule: Q01DX Z (sc), vehicle: saline); 100 % of control (dose: 216.0 mg/kg/injection, schedule: Q01DX Z (sc), vehicle: saline); 111 % of control (dose: 360.0 mg/kg/injection, schedule: Q01DX Z (sc), vehicle: saline); 111 % of control (dose: 600.0 mg/kg/injection, schedule: Q01DX Z (sc), vehicle: saline).

Consider `O=c1ccn(C2OC(CO)C(O)C2O)c(=O)[nH]1` (configuration not stated), for which the T/C under setting [1] is 100 % of control; the T/C under setting [2] is 100 % of control; the T/C under setting [3] is 95 % of control and 111 % of control; the T/C under setting [4] was 90 % of control and 100 % of control; the T/C (dose: 500.0 mg/kg/injection, schedule: Q01DX Z (sc), vehicle: saline) was 90 % of control and 100 % of control; the T/C (dose: 833.0 mg/kg/injection, schedule: Q01DX Z (sc), vehicle: saline) was 100 % of control. For the same molecule, the T/C (dose: 1388.0 mg/kg/injection, schedule: Q01DX Z (sc), vehicle: saline) is 100 % of control.

For the molecule `Nc1ncc(N)c(N)n1`, the T/C (dose: 39.0 mg/kg/injection, schedule: Q01DX Z (sc), vehicle: methylcellulose (MC)) is 100 % of control; the T/C (dose: 65.0 mg/kg/injection, schedule: Q01DX Z (sc), vehicle: carboxymethylcellulose (CMC)) is 100 % of control; the T/C (dose: 65.0 mg/kg/injection, schedule: Q01DX Z (sc), vehicle: methylcellulose (MC)) is 100 % of control; the T/C (dose: 108.0 mg/kg/injection, schedule: Q01DX Z (sc), vehicle: carboxymethylcellulose (CMC)) was 107 % of control; the T/C (dose: 108.0 mg/kg/injection, schedule: Q01DX Z (sc), vehicle: methylcellulose (MC)) was 100 % of control; the T/C (dose: 180.0 mg/kg/injection, schedule: Q01DX Z (sc), vehicle: carboxymethylcellulose (CMC)) is 100 % of control. The T/C runs as follows: (dose: 180.0 mg/kg/injection, schedule: Q01DX Z (sc), vehicle: methylcellulose (MC)) 100 % of control; (dose: 300.0 mg/kg/injection, schedule: Q01DX Z (sc), vehicle: carboxymethylcellulose (CMC)) 100 % of control; (dose: 300.0 mg/kg/injection, schedule: Q01DX Z (sc), vehicle: methylcellulose (MC)) 100 % of control; (dose: 500.0 mg/kg/injection, schedule: Q01DX Z (sc), vehicle: carboxymethylcellulose (CMC)) 100 % of control.
